Measurements taken from PubChem BioAssay (NCI).
“And” between values parts separate entries of the source, which are not always exact repeats. Equal entries are not always repeated.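 The compound was tested at five concentrations on cells cultured in 96-well plates, with a 48-hour exposure period. GI50: concentration for 50% inhibition of growth. TGI is the concentration that stops growth completely.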

Key:
Experiment in all cases: DTP human tumour cell line panel, 48 h
RPMI-8226 leukemia = test system: RPMI-8226 leukemia
SF-268 CNS = test system: SF-268 CNS
MCF7 breast = test system: MCF7 breast
K-562 leukemia = test system: K-562 leukemia
A498 renal = test system: A498 renal
SNB-19 CNS = test system: SNB-19 CNS
ACHN renal = test system: ACHN renal
UACC-257 melanoma = test system: UACC-257 melanoma
NCI-H460 lung = test system: NCI-H460 lung
TK-10 renal = test system: TK-10 renal

Compound	GI50 (RPMI-8226 leukemia)	TGI (RPMI-8226 leukemia)	GI50 (SF-268 CNS)	TGI (SF-268 CNS)	GI50 (MCF7 breast)	TGI (MCF7 breast)	GI50 (K-562 leukemia)	TGI (K-562 leukemia)	GI50 (A498 renal)	TGI (A498 renal)	GI50 (SNB-19 CNS)	TGI (SNB-19 CNS)	GI50 (ACHN renal)	TGI (ACHN renal)	GI50 (UACC-257 melanoma)	TGI (UACC-257 melanoma)	GI50 (NCI-H460 lung)	TGI (NCI-H460 lung)	GI50 (TK-10 renal)	TGI (TK-10 renal)
Nc1nc(N)c2nc(CNc3ccc(C(=O)NC(CC(=O)O)C(=O)O)cc3)cnc2n1 (stereo not drawn)	6.43 µM	> 100 µM	0.528 µM	> 100 µM	0.631 µM	> 100 µM	0.0741 µM	> 100 µM	13.3 µM	> 100 µM	8.39 µM	> 100 µM	2.45 µM	> 100 µM	> 33.8 µM	> 100 µM	0.354 µM	> 100 µM	1.71 µM	> 100 µM
CCCCC[C@H]1C/C=C2/C(=O)C=C[C@@H]2C/C=C\CCCC(=O)O[C@@H](CCCCC)C/C=C2/C(=O)C=C[C@@H]2C/C=C\CCCC(=O)O1	0.098 µM	0.599 µM	0.442 µM	1.75 µM	0.119 µM	0.484 µM	0.0891 µM	0.561 µM	0.449 µM	0.863 µM	0.318 µM	0.809 µM	0.373 µM	0.755 µM	0.531 µM	1.3 µM	0.606 µM	1.48 µM	0.582 µM	1.31 µM
c1csc(-c2cn3nc(-c4c[nH]c5ccccc45)sc3n2)c1	1.47 µM	15.4 µM	3.84 µM	> 100 µM	1.17 µM	20.2 µM	0.382 µM	39.9 µM	5.97 µM	23.6 µM	2.56 µM	> 100 µM	3.23 µM	52.5 µM	11.4 µM	98.3 µM	0.574 µM	> 100 µM	5.21 µM	33.5 µM
C=CCC1(O)c2ccccc2C(=O)c2c(NCCN(CC(=O)OCC)CC(=O)OCC)cccc21 (stereo not drawn)	98.5 µM	> 100 µM	> 100 µM	> 100 µM	> 100 µM	> 100 µM	30.9 µM	> 100 µM	> 100 µM	> 100 µM	> 100 µM	> 100 µM	> 100 µM	> 100 µM	> 100 µM	> 100 µM	> 100 µM	> 100 µM	> 100 µM	> 100 µM
CCOC(=O)c1cc2c(n1Cc1cccc(OC)c1)-c1oncc1CCC2	1.81 µM	> 43 µM	9.03 µM	> 100 µM	0.385 µM	> 100 µM	0.456 µM	> 100 µM	0.881 µM	17.6 µM	25.3 µM	> 100 µM	4.42 µM	> 100 µM	3.51 µM	> 100 µM	3.52 µM	> 100 µM	7 µM	> 100 µM
CCN(Cc1ccc(F)cc1)c1ccc(CO)c(F)c1	7.13 µM	33.7 µM	24.8 µM	> 92.3 µM	6.03 µM	60.7 µM	7.46 µM	> 73.5 µM	0.114 µM	0.252 µM	27.3 µM	> 100 µM	14.9 µM	> 100 µM	2.33 µM	9.29 µM	3.93 µM	20.4 µM	0.625 µM	3.07 µM
O=C(Cn1c(=O)c(-c2ccccc2)nc2ccccc21)Nc1ccc(F)cc1	37.4 µM	> 100 µM	> 100 µM	> 100 µM	98.7 µM	> 100 µM	35.8 µM	> 100 µM	13.7 µM	97.9 µM	41.8 µM	> 100 µM	42.6 µM	> 100 µM	> 100 µM	> 100 µM	> 100 µM	> 100 µM	85 µM	> 100 µM
O=C1C(N2CC2)=C(N2CC2)C(=O)C(N2CC2)=C1N1CC1	2.74 µM	17.2 µM	0.265 µM	5.31 µM	< 0.0218 µM	1.5 µM	0.785 µM	> 100 µM	0.348 µM	1.19 µM	0.14 µM	4.32 µM	< 0.0179 µM	0.351 µM	0.109 µM	0.749 µM	–	0.178 µM	2.59 µM	> 100 µM
COc1ccc2c(=O)cc(-c3ccncc3)oc2c1OC	–	> 100 µM	–	91.7 µM	–	> 100 µM	–	> 100 µM	–	49.8 µM	–	> 100 µM	–	> 100 µM	–	> 100 µM	–	72.8 µM	–	> 100 µM
C[C@]12CCc3sc(NCCc4ccccc4)nc3C1=CC[C@@H]1[C@@H]2CC[C@]2(C)C(=O)CC[C@@H]12	1.79 µM	5.69 µM	4.62 µM	> 100 µM	2.68 µM	> 100 µM	2.89 µM	> 100 µM	4.43 µM	> 100 µM	97.5 µM	> 100 µM	1.96 µM	3.75 µM	4.92 µM	79.8 µM	4.47 µM	> 100 µM	4.15 µM	> 100 µM
COc1cccc2c1ccc1nc3cccc(C(=O)N[C@H](C)CN(C)C)c3nc12	0.0918 µM	0.647 µM	0.0654 µM	0.916 µM	0.0341 µM	1.58 µM	0.0474 µM	4.77 µM	0.0793 µM	0.235 µM	0.0907 µM	10.9 µM	0.0426 µM	10.6 µM	0.16 µM	0.659 µM	0.0354 µM	0.221 µM	0.0762 µM	0.512 µM
COc1cccc(-c2nn(-c3ccccc3)cc2-c2ccnc(NCCCNC(=O)Nc3ccc(Cl)c(Cl)c3)c2)c1	2.13 µM	5.37 µM	3.32 µM	13.9 µM	1.94 µM	3.71 µM	2.38 µM	5.33 µM	2.15 µM	8.08 µM	4.01 µM	25.6 µM	4.23 µM	22.4 µM	2.05 µM	5.38 µM	3.76 µM	14.7 µM	4.51 µM	17.1 µM
COc1cc(NC(C)CCCN)c2ncccc2c1 (stereo not drawn)	–	> 100 µM	–	> 100 µM	–	31.5 µM	–	> 100 µM	30.6 µM and 76.7 µM	> 100 µM	39.8 µM and > 100 µM	> 100 µM	–	> 100 µM	11.3 µM and 30.2 µM	27.2 µM and 54.5 µM	32.8 µM and > 94.8 µM	> 100 µM	–	> 100 µM
COC(=O)c1ccccc1OCc1cc(=O)oc2ccc(C)cc12	–	> 100 µM	–	> 82.7 µM	–	> 100 µM	–	> 100 µM	–	> 100 µM	–	38.9 µM	–	> 100 µM	–	> 100 µM	–	> 100 µM	–	> 100 µM
